{"source": "ChEMBL document CHEMBL1138883", "about": "“Synthesis and biological evaluation of new asymmetrical bisintercalators as potential antitumor drugs” (2006)", "key": {"[1]": {"system": "PC-3", "experiment": "Induction of apoptosis in PC3 measured as percentage of necrotic cells by biparametric PI/Annexin V assay at 3.6 uM after 8 hrs", "assay_type": "functional, Homo sapiens"}, "[2]": {"system": "PC-3", "experiment": "Induction of apoptosis in PC3 measured as percentage of necrotic cells by biparametric PI/Annexin V assay at 3.6 uM after 24 hrs", "assay_type": "functional, Homo sapiens"}, "[3]": {"system": "PC-3", "experiment": "Induction of apoptosis in PC3 measured as percentage of necrotic cells by biparametric PI/Annexin V assay at 3.6 uM after 48 hrs", "assay_type": "functional, Homo sapiens"}, "[4]": {"system": "PC-3", "experiment": "Induction of apoptosis in PC3 measured as percentage of late apoptotic cells by biparametric PI/Annexin V assay at 3.6 uM after 8 hrs", "assay_type": "functional, Homo sapiens"}, "[5]": {"system": "PC-3", "experiment": "Reduction in PC3 cell viability after 48 hrs by FDA flow cytometer assay", "assay_type": "functional, cell-based", "conditions": "Homo sapiens"}, "[6]": {"system": "PC-3", "experiment": "Induction of apoptosis in PC3 measured as percentage of early apoptotic cells by biparametric PI/Annexin V assay at 3.6 uM after 4 hrs", "assay_type": "functional, Homo sapiens"}, "[7]": {"system": "PC-3", "experiment": "Induction of apoptosis in PC3 measured as percentage of late apoptotic cells by biparametric PI/Annexin V assay at 3.6 uM after 48 hrs", "assay_type": "functional, Homo sapiens"}, "[8]": {"system": "PC-3", "experiment": "Induction of apoptosis in PC3 measured as percentage of necrotic cells by biparametric PI/Annexin V assay at 3.6 uM after 4 hrs", "assay_type": "functional, Homo sapiens"}, "[9]": {"system": "PC-3", "experiment": "Induction of apoptosis in PC3 measured as percentage of early apoptotic cells by biparametric PI/Annexin V assay at 3.6 uM after 8 hrs", "assay_type": "functional, Homo sapiens"}, "[10]": {"system": "PC-3", "experiment": "Induction of apoptosis in PC3 measured as percentage of early apoptotic cells by biparametric PI/Annexin V assay at 3.6 uM after 24 hrs", "assay_type": "functional, Homo sapiens"}, "[11]": {"system": "PC-3", "experiment": "Induction of apoptosis in PC3 measured as percentage of late apoptotic cells by biparametric PI/Annexin V assay at 3.6 uM after 4 hrs", "assay_type": "functional, Homo sapiens"}, "[12]": {"system": "PC-3", "experiment": "Induction of apoptosis in PC3 measured as percentage of late apoptotic cells by biparametric PI/Annexin V assay at 3.6 uM after 24 hrs", "assay_type": "functional, Homo sapiens"}, "[13]": {"system": "PC-3", "experiment": "Cytotoxicity against PC3 cells by SRB assay after 48 hrs", "assay_type": "functional", "conditions": "Homo sapiens, PC-3, 48 h"}, "[14]": {"system": "PC-3", "experiment": "Induction of apoptosis in PC3 cells by DNA fragmentation assay", "assay_type": "functional, cell-based", "conditions": "Homo sapiens"}, "[15]": {"system": "PC-3", "experiment": "Induction of apoptosis in PC3 cells measured as percentage of living cells by biparametric PI/Annexin V assay at 3.6 uM after 24 hrs", "assay_type": "functional, Homo sapiens"}, "[16]": {"system": "PC-3", "experiment": "Induction of apoptosis in PC3 cells measured as percentage of living cells by biparametric PI/Annexin V assay at 3.6 uM after 48 hrs", "assay_type": "functional, Homo sapiens"}, "[17]": {"system": "PC-3", "experiment": "Induction of apoptosis in PC3 cells measured as percentage of living cells by biparametric PI/Annexin V assay at 3.6 uM after 8 hrs", "assay_type": "functional, Homo sapiens"}, "[18]": {"experiment": "Ratio of K(app) for [A-T] to [G-C]"}, "[19]": {"system": "PC-3", "experiment": "Induction of apoptosis in PC3 measured as percentage of early apoptotic cells by biparametric PI/Annexin V assay at 3.6 uM after 48 hrs", "assay_type": "functional, Homo sapiens"}, "[20]": {"system": "PC-3", "experiment": "Induction of necrosis in PC3 cells by DNA fragmentation assay", "assay_type": "functional, cell-based", "conditions": "Homo sapiens"}, "[21]": {"system": "PC-3", "experiment": "Induction of apoptosis in PC3 cells measured as percentage of living cells by biparametric PI/Annexin V assay at 3.6 uM after 4 hrs", "assay_type": "functional, Homo sapiens"}, "[22]": {"system": "PC-3", "experiment": "Induction of apoptosis in PC3 measured as percentage of necrotic cells by biparametric PI/Annexin V assay at 5.1 uM after 4 hrs", "assay_type": "functional, Homo sapiens"}, "[23]": {"system": "PC-3", "experiment": "Induction of apoptosis in PC3 measured as percentage of early apoptotic cells by biparametric PI/Annexin V assay at 5.1 uM after 48 hrs", "assay_type": "functional, Homo sapiens"}, "[24]": {"system": "PC-3", "experiment": "Induction of apoptosis in PC3 measured as percentage of early apoptotic cells by biparametric PI/Annexin V assay at 5.1 uM after 4 hrs", "assay_type": "functional, Homo sapiens"}, "[25]": {"system": "PC-3", "experiment": "Induction of apoptosis in PC3 measured as percentage of necrotic cells by biparametric PI/Annexin V assay at 5.1 uM after 8 hrs", "assay_type": "functional, Homo sapiens"}, "[26]": {"system": "PC-3", "experiment": "Induction of apoptosis in PC3 measured as percentage of early apoptotic cells by biparametric PI/Annexin V assay at 5.1 uM after 8 hrs", "assay_type": "functional, Homo sapiens"}, "[27]": {"system": "PC-3", "experiment": "Induction of apoptosis in PC3 cells measured as percentage of living cells by biparametric PI/Annexin V assay at 5.1 uM after 4 hrs", "assay_type": "functional, Homo sapiens"}, "[28]": {"system": "PC-3", "experiment": "Induction of apoptosis in PC3 measured as percentage of necrotic cells by biparametric PI/Annexin V assay at 5.1 uM after 24 hrs", "assay_type": "functional, Homo sapiens"}, "[29]": {"system": "PC-3", "experiment": "Induction of apoptosis in PC3 measured as percentage of late apoptotic cells by biparametric PI/Annexin V assay at 5.1 uM after 8 hrs", "assay_type": "functional, Homo sapiens"}, "[30]": {"system": "PC-3", "experiment": "Induction of apoptosis in PC3 measured as percentage of necrotic cells by biparametric PI/Annexin V assay at 5.1 uM after 48 hrs", "assay_type": "functional, Homo sapiens"}, "[31]": {"system": "PC-3", "experiment": "Induction of apoptosis in PC3 measured as percentage of late apoptotic cells by biparametric PI/Annexin V assay at 5.1 uM after 24 hrs", "assay_type": "functional, Homo sapiens"}, "[32]": {"system": "PC-3", "experiment": "Induction of apoptosis in PC3 measured as percentage of late apoptotic cells by biparametric PI/Annexin V assay at 5.1 uM after 4 hrs", "assay_type": "functional, Homo sapiens"}, "[33]": {"system": "PC-3", "experiment": "Induction of apoptosis in PC3 cells measured as percentage of living cells by biparametric PI/Annexin V assay at 5.1 uM after 48 hrs", "assay_type": "functional, Homo sapiens"}, "[34]": {"system": "PC-3", "experiment": "Induction of apoptosis in PC3 measured as percentage of late apoptotic cells by biparametric PI/Annexin V assay at 5.1 uM after 48 hrs", "assay_type": "functional, Homo sapiens"}, "[35]": {"system": "PC-3", "experiment": "Induction of apoptosis in PC3 cells measured as percentage of living cells by biparametric PI/Annexin V assay at 5.1 uM after 24 hrs", "assay_type": "functional, Homo sapiens"}, "[36]": {"system": "PC-3", "experiment": "Induction of apoptosis in PC3 measured as percentage of early apoptotic cells by biparametric PI/Annexin V assay at 5.1 uM after 24 hrs", "assay_type": "functional, Homo sapiens"}, "[37]": {"system": "PC-3", "experiment": "Induction of apoptosis in PC3 cells measured as percentage of living cells by biparametric PI/Annexin V assay at 5.1 uM after 8 hrs", "assay_type": "functional, Homo sapiens"}}, "note": "Activity calls are given as the source filed them. The rule behind the calls is not given here.", "data": [{"smiles": "COc1ccc2nc3c(C(=O)NCCN(C)C)ccc(NCCCN(C)CCCN4C(=O)c5cccc6cccc(c56)C4=O)c3c(O)c2c1.Cl", "values": [{"measurement": "Activity", "setting": "[1]", "result": 32.9, "unit": "%"}, {"measurement": "Activity", "setting": "[2]", "result": 22.3, "unit": "%"}, {"measurement": "Activity", "setting": "[3]", "result": 24.4, "unit": "%"}, {"measurement": "Activity", "setting": "[4]", "result": 2.9, "unit": "%"}, {"measurement": "Activity", "setting": "[5]", "result": "Time-dependent effect"}, {"measurement": "Activity", "setting": "[6]", "result": 1.3, "unit": "%"}, {"measurement": "Activity", "setting": "[7]", "result": 14.3, "unit": "%"}, {"measurement": "Activity", "setting": "[8]", "result": 16.4, "unit": "%"}, {"measurement": "Activity", "setting": "[9]", "result": 1.5, "unit": "%"}, {"measurement": "Activity", "setting": "[10]", "result": 25.9, "unit": "%"}, {"measurement": "Activity", "setting": "[11]", "result": 1.2, "unit": "%"}, {"measurement": "Activity", "setting": "[12]", "result": 16.3, "unit": "%"}, {"measurement": "GI50", "setting": "[13]", "result": 0.16, "unit": "nM"}, {"measurement": "LC50 (concentration for 50% net cell kill)", "setting": "[13]", "result": 3600, "unit": "nM"}, {"measurement": "TGI", "setting": "[13]", "result": 14, "unit": "nM"}, {"measurement": "Activity", "setting": "[14]", "result": "Active"}, {"measurement": "Activity", "setting": "[15]", "result": 35.5, "unit": "%"}, {"measurement": "Activity", "setting": "[16]", "result": 2.3, "unit": "%"}, {"measurement": "Activity", "setting": "[17]", "result": 62.7, "unit": "%"}, {"measurement": "Selectivity ratio", "setting": "[18]", "result": 30}, {"measurement": "Activity", "setting": "[19]", "result": 59, "unit": "%"}, {"measurement": "Activity", "setting": "[20]", "result": "Active"}, {"measurement": "Activity", "setting": "[21]", "result": 81.1, "unit": "%"}]}, {"smiles": "Cc1ccc2c(c1)c(=O)c1c(NCCCN(C)CCCN3C(=O)c4cccc5cccc(c45)C3=O)ccc3nnn2c31.Cl", "values": [{"measurement": "Activity", "setting": "[22]", "result": 28.6, "unit": "%"}, {"measurement": "Activity", "setting": "[5]", "result": "Time-dependent effect"}, {"measurement": "Activity", "setting": "[23]", "result": 57, "unit": "%"}, {"measurement": "Activity", "setting": "[24]", "result": 0.9, "unit": "%"}, {"measurement": "Activity", "setting": "[25]", "result": 42, "unit": "%"}, {"measurement": "Activity", "setting": "[26]", "result": 1.3, "unit": "%"}, {"measurement": "Activity", "setting": "[27]", "result": 69.4, "unit": "%"}, {"measurement": "GI50", "setting": "[13]", "result": 17, "unit": "nM"}, {"measurement": "LC50 (concentration for 50% net cell kill)", "setting": "[13]", "result": 5100, "unit": "nM"}, {"measurement": "TGI", "setting": "[13]", "result": 1600, "unit": "nM"}, {"measurement": "Activity", "setting": "[28]", "result": 33, "unit": "%"}, {"measurement": "Activity", "setting": "[29]", "result": 1.9, "unit": "%"}, {"measurement": "Activity", "setting": "[14]", "result": "Active"}, {"measurement": "Activity", "setting": "[30]", "result": 27.3, "unit": "%"}, {"measurement": "Activity", "setting": "[31]", "result": 16.1, "unit": "%"}, {"measurement": "Activity", "setting": "[32]", "result": 1.1, "unit": "%"}, {"measurement": "Activity", "setting": "[33]", "result": 1, "unit": "%"}, {"measurement": "Selectivity ratio", "setting": "[18]", "result": 1.7}, {"measurement": "Activity", "setting": "[34]", "result": 15.7, "unit": "%"}, {"measurement": "Activity", "setting": "[35]", "result": 11.9, "unit": "%"}, {"measurement": "Activity", "setting": "[36]", "result": 39, "unit": "%"}, {"measurement": "Activity", "setting": "[37]", "result": 54.8, "unit": "%"}]}]}
